Test results published in patent publication US20070128217A1 (priority 2003, published 2007).

Columns and labels:
[1] = system: antibodies in sera from SARS patients (sera 1a, 1b, 2, 6, 37, 62, London, SARS-yellow, SARS-green); type: binding, human; design: Binding of serum 6 to linear peptides of protein X1 of SARS-CoV Urbani / Binding of serum 37 to linear peptides of protein X1 of SARS-CoV Urbani / Binding of serum 6 to looped/cyclic peptide (PEPSCAN-ELISA) / Binding of serum 37 to looped/cyclic peptide (PEPSCAN-ELISA) / Binding of serum 37 to looped/cyclic peptides of protein X1 of SARS-CoV Urbani / Binding of serum 6 to linear peptides of protein X2 / Binding of serum 37 to linear peptides of protein X2 / Binding of serum 37 to looped/cyclic peptides of protein X2 of SARS-CoV Urbani / Binding of serum 6 to linear peptides of protein M of SARS-CoV Urbani / Binding of serum 37 to linear peptides of protein M of SARS-CoV Urbani / Binding of serum 6 to looped/cyclic peptides of protein M of SARS-CoV Urbani / Binding of serum 37 to looped/cyclic peptides of protein M of SARS-CoV Urbani / Binding of serum 6 to linear peptides of protein X3 of SARS-CoV Urbani / Binding of serum 37 to linear peptides of protein X3 of SARS-CoV Urbani / Binding of serum 37 to looped/cyclic peptides of protein X3 of SARS-CoV Urbani / Binding of serum 6 to linear peptides of protein X4 of SARS-CoV Urbani / Binding of serum 37 to linear peptides of protein X4 of SARS-CoV Urbani / Binding of serum 37 to looped/cyclic peptides of protein X4 of SARS-CoV Urbani / Binding of serum 6 to linear peptides of protein X5 of SARS-CoV Urbani / Binding of serum 37 to linear peptides of protein X5 of SARS-CoV Urbani / Binding of serum 37 to looped/cyclic peptides of protein X5 of SARS-CoV Urbani / Binding of serum 6 to linear peptides of protein N of SARS-CoV Urbani / Binding of serum 37 to linear peptides of protein N of SARS-CoV Urbani / Binding of serum 6 to linear peptide (PEPSCAN-ELISA) / Binding of serum 1a to looped/cyclic peptides of protein N of SARS-CoV Urbani / Binding of serum 1b to looped/cyclic peptides of protein N of SARS-CoV Urbani / Binding of serum 2 to looped/cyclic peptides of protein N of SARS-CoV Urbani / Binding of serum 6 to looped/cyclic peptides of protein N of SARS-CoV Urbani / Binding of serum 37 to looped/cyclic peptides of protein N of SARS-CoV Urbani / Binding of serum 62 to looped/cyclic peptides of protein N of SARS-CoV Urbani / Binding of serum London to looped/cyclic peptides of protein N of SARS-CoV Urbani / Binding of serum SARS-green to looped/cyclic peptides of protein N of SARS-CoV Urbani: unit not given here
[2] = system: rabbit serum obtained by immunizing a rabbit with the SARS-CoV strain Frankfurt 1; type: binding; design: Binding of a rabbit serum to linear peptides / Binding of a rabbit serum to looped peptides / Rabbit serum linear peptides / Rabbit serum looped peptides / Binding of a rabbit serum to linear peptides of protein N of SARS-CoV Urbani (Rabbit serum linear peptides) / Binding of a rabbit serum to looped/cyclic peptides of protein N of SARS-CoV Urbani (Rabbit serum looped peptides): unit not given here
[3] = system: control sera (pooled serum of ten healthy LUMC hospital workers; commercial negative donor pooled serum from the Dutch bloodbank); type: binding, human; design: Binding of Control serum LUMC to linear peptides / Binding of Control serum Blood-bank to linear peptides / Binding of Control serum LUMC to looped peptides / Binding of Control Serum Blood-Bank to Looped peptides / Binding of Control serum LUMC to linear peptides of the protein M of SARS-CoV Urbani / Binding of Control serum Blood-bank to linear peptides of the protein M of SARS-CoV Urbani / Binding of Control serum LUMC to looped peptides of the protein M of SARS-CoV Urbani / Binding of Control Serum Blood-Bank to Looped peptides of the protein M of SARS-CoV Urbani: unit not given here
[4] = system: recombinant human anti-SARS-CoV antibody 03-018; type: binding; design: Binding of antibody 03-018 to linear peptides of the N protein of SARS-CoV Urbani / Binding of antibody 03-018 to looped/cyclic peptides of the N protein of SARS-CoV Urbani: unit not given here

## SLPYGANKEGIVWVA
[1]
  Binding of serum 1a to linear peptides of protein N of SARS-CoV Urbani: 0.3
  Binding of serum 1a to looped/cyclic peptides of protein N of SARS-CoV Urbani: 0.3
  Binding of serum 1b to linear peptides of protein N of SARS-CoV Urbani: 0.1
  Binding of serum 1b to looped/cyclic peptides of protein N of SARS-CoV Urbani: 0.2
  Binding of serum 2 to linear peptides of protein N of SARS-CoV Urbani: 0.2
  Binding of serum 2 to looped/cyclic peptides of protein N of SARS-CoV Urbani: 0.5
  Binding of serum 6 to linear peptides of protein N of SARS-CoV Urbani: 0.2
  Binding of serum 6 to looped/cyclic peptides of protein N of SARS-CoV Urbani: 0.3
  Binding of serum 37 to linear peptides of protein N of SARS-CoV Urbani: 0.8
  Binding of serum 37 to looped/cyclic peptides of protein N of SARS-CoV Urbani: 0.7
  Binding of serum 62 to linear peptides of protein N of SARS-CoV Urbani: 1.2
  Binding of serum 62 to looped/cyclic peptides of protein N of SARS-CoV Urbani: 0.6
  Binding of serum London to linear peptides of protein N of SARS-CoV Urbani: 0.6
  Binding of serum London to looped/cyclic peptides of protein N of SARS-CoV Urbani: 0.4
  Binding of serum SARS-green to linear peptides of protein N of SARS-CoV Urbani: 0.5
  Binding of serum SARS-green to looped/cyclic peptides of protein N of SARS-CoV Urbani: 0.3
  Binding of serum SARS-yellow to linear peptides of protein N of SARS-CoV Urbani: 0.7
  Binding of serum SARS-yellow to looped/cyclic peptides of protein N of SARS-CoV Urbani: 0.4
[2]
  Binding of a rabbit serum to linear peptides of protein N of SARS-CoV Urbani (Rabbit serum linear peptides): 0.2
  Binding of a rabbit serum to looped/cyclic peptides of protein N of SARS-CoV Urbani (Rabbit serum looped peptides): 0.3
[3]
  Binding of Control Serum Blood-Bank to Looped peptides: 0.6
  Binding of Control serum Blood-bank to linear peptides: 0.9
  Binding of Control serum LUMC to linear peptides: 0.7
  Binding of Control serum LUMC to looped peptides: 0.6
[4]
  Binding of antibody 03-018 to linear peptides of the N protein of SARS-CoV Urbani: 0.1
  Binding of antibody 03-018 to looped/cyclic peptides of the N protein of SARS-CoV Urbani: 0.2

## ASAFFGMSRIGMEVT
[1]
  Binding of serum 1a to linear peptides of protein N of SARS-CoV Urbani: 0.2
  Binding of serum 1a to looped/cyclic peptides of protein N of SARS-CoV Urbani: 0.3
  Binding of serum 1b to linear peptides of protein N of SARS-CoV Urbani: 0.3
  Binding of serum 1b to looped/cyclic peptides of protein N of SARS-CoV Urbani: 0.2
  Binding of serum 2 to linear peptides of protein N of SARS-CoV Urbani: 0.2
  Binding of serum 2 to looped/cyclic peptides of protein N of SARS-CoV Urbani: 0.3
  Binding of serum 6 to linear peptides of protein N of SARS-CoV Urbani: 0.2
  Binding of serum 6 to looped/cyclic peptides of protein N of SARS-CoV Urbani: 0.1
  Binding of serum 37 to linear peptides of protein N of SARS-CoV Urbani: 0.7
  Binding of serum 37 to looped/cyclic peptides of protein N of SARS-CoV Urbani: 0.5
  Binding of serum 62 to linear peptides of protein N of SARS-CoV Urbani: 0.7
  Binding of serum 62 to looped/cyclic peptides of protein N of SARS-CoV Urbani: 0.4
  Binding of serum London to linear peptides of protein N of SARS-CoV Urbani: 0.8
  Binding of serum London to looped/cyclic peptides of protein N of SARS-CoV Urbani: 0.3
  Binding of serum SARS-green to linear peptides of protein N of SARS-CoV Urbani: 0.3
  Binding of serum SARS-green to looped/cyclic peptides of protein N of SARS-CoV Urbani: 0.3
  Binding of serum SARS-yellow to linear peptides of protein N of SARS-CoV Urbani: 0.7
  Binding of serum SARS-yellow to looped/cyclic peptides of protein N of SARS-CoV Urbani: 0.6
[2]
  Binding of a rabbit serum to linear peptides of protein N of SARS-CoV Urbani (Rabbit serum linear peptides): 0.1
  Binding of a rabbit serum to looped/cyclic peptides of protein N of SARS-CoV Urbani (Rabbit serum looped peptides): 0.5
[3]
  Control Serum Blood-Bank Looped peptides: 0.5
  Control serum Blood-bank linear peptides: 0.7
  Control serum LUMC linear peptides: 0.7
  Control serum LUMC looped peptides: 0.4
[4]
  Binding of antibody 03-018 to linear peptides of the N protein of SARS-CoV Urbani: 0.1
  Binding of antibody 03-018 to looped/cyclic peptides of the N protein of SARS-CoV Urbani: 0.2
